Measurements taken from patent publication US8053413B2, “Methods for treating sleep disorders by cholecystokinin (CCK) receptor B antagonists” (The Board of Trustees of the University of Illinois, priority 2005, dated 2011).

Key:
[1] = tested on: sleep apnea (OSAS, central apnea); conditions: cited from earlier work; for effect in individuals with obstructive sleep apnea (OSAS) / effect in individuals with central apnea: patients; for effect in individuals with central apnea: primarily central apneas
[2] = tested on: spontaneous sleep apnea in the rat; assay: Spontaneous sleep apnea in the rat: plethysmograph, EEG and EMG recording after i.p. injection; format: in vivo, Sprague-Dawley rats; conditions: for SP apnea index, % of placebo value: spontaneous (SP) apneas, p<0.03; for efficacy against sleep apnea (rate of apneas per hour of NREM and REM sleep): 6 hours polygraphic recording, i.p.
Method: Adult, male Sprague-Dawley rats (Sasco-King, Wilmington, Mass.), usually 8 per test group with an average weight of 300 grams, are maintained on a 12-hour light/12-hour dark cycle for one week. The animals are housed in individual cages and given ad libitum access to food and water. Following the one week of acclimatization, animals are subjected to the following surgical procedures.
Acclimatized animals are anesthetized using a mixture of ketamine (80 mg/kg) and xylazine (5 mg/kg) at a volume of 1 ml/kg body weight for the implantation of cortical electrodes for electroencephalogram (EEG) recording and neck muscle electrodes for electromyogram (EMG) recording. The surface of the skull is exposed surgically and cleaned with a 20% solution of hydrogen peroxide followed by a solution of 95% isopropyl alcohol. A dental preparation of sodium fluoride (FLURA-GEL; Saslow Dental, Mt. Prospect, Ill.) is subsequently applied to harden the skull above the parietal cortex and allowed to remain in place for 5 minutes. The fluoride mixture is then removed from the skull above the parietal cortex. The EEG electrodes consisting of four stainless steel machine screws, having leads attached thereto, are threaded into the skull to rest on the dura over the parietal cortex. A thin layer of JUSTI resin cement (Saslow Dental, Mt. Prospect, Ill.) is applied to cover the screw heads (of screws implanted in the skull) and surrounding skull to further promote the adhesion of the implant. EMG electrodes consisting of two ball-shaped wires are inserted into the bilateral neck musculature. All leads (i.e., EEG and EMG leads) are soldered to a miniature connector (39F1401; Newark Electronics, Schaumburg, Ill.). The entire assembly is subsequently fixed to the skull with dental cement.
Physiological parameters from each animal prepared as described herein are recorded on two to five occasions in random order, with recordings for an individual animal separated by at least 3 days. Fifteen minutes prior to each recording an animal receives a systemic injection (1 mL/kg intraperitoneal bolus) of either saline (control) or an active dose of a drug treatment.
Respiration is recorded by placing each animal, unrestrained, inside a single chamber plethysmograph (PLYUNIR/U; Buxco Electronics, Sharon, Conn.; dimension 6 inches×10 inches×6 inches) ventilated with a bias flow of fresh room air at a rate of 2 Liters/minute. A cable plugged onto the animal's connector and passed through a sealed port is used to collect the bioelectrical activity from the head implant.
Sleep and waking states are assessed using conventional software (Benington, et al. (1994) Sleep 17:28-36) to analyze the biparietal EEG and nuchal EMG signals on 10-second epochs. The software discriminates wakefulness (W) as a high frequency low amplitude EEG with a concomitant high EMG tone, NREM sleep by increased spindle and […] activity together with decreased EMG tone, and REM sleep by a […] activity and an absence of EMG tone. Sleep efficiency is measured as the percentage of total recorded epochs staged as NREM or REM sleep.
An accepted physiological animal model of spontaneous sleep apnea in the rat (see Radulovacki & Carley (2002) In: Sleep-Related Breathing Disorder: Experimental Models and Therapeutic Potential (Carley & Radulovacki, eds.) Marcel Dekker: New York, pp. 3-16) is used to assess the effects of test drugs. More specifically, sleep apneas, defined as cessation of respiratory effort for at least 2.5 seconds, are scored for each recording session and associated with the stage of sleep in which they occur (i.e., NREM or REM sleep). The duration requirement of 2.5 seconds represents at least two “missed” breaths, which is therefore analogous to a 10 second apnea duration requirement in humans, which also reflects two to three missed breaths. […]

[3] = tested on: CCK-induced depolarization of nodose ganglion neurons; conditions: isolated nodose ganglion cells; cited from earlier work
[4] = tested on: central apneas; conditions: rats with frequent central apneas during all sleep stages; cited from earlier work
[5] = tested on: sleep apnea; conditions: cited from earlier work
[6] = individuals with obstructive sleep apnea

Molecule: O=C1CC2(CCCC2)CC(=O)N1CCCCN1CCN(c2ncccn2)CC1 [Buspirone]
- post-surgical apneustic breathing ([1]; one child): eliminate post-surgical apneustic breathing
- patients with reduced apnea index ([1]; patients with sleep apnea syndrome): 4 of 5

Molecule: Cc1cc(C)c(NC(=O)C[C@H](CC(=O)O)c2cccc3ccccc23)c(C(=O)N2CCC3(CCCC3)CC2)c1 [CR2945]
- SP apnea index, % of placebo value ([2]; 0.5 mg/kg i.p. in DMSO, rats): 42%
- SP apnea index, % of placebo value ([2]; 5.0 mg/kg i.p. in DMSO, rats): 31%
- REM SP apnea index ([2]; all four doses 0.005, 0.05, 0.5, 5.0 mg/kg i.p., p<0.04 for each): significantly reduced
- frequency of spontaneous central apnea expression ([2]; all sleep stages, rats, systemic injection): significantly reduced
- apnea duration ([2]; any dose 0.005-5.0 mg/kg i.p., p=0.7): not affected

Molecule: Cc1cccc(NC(=O)N[C@@H]2N=C(c3ccccc3)c3ccccc3N(C)C2=O)c1 [L-365,260]
- potency in blocking CCK-induced depolarization of nodose ganglion neurons [3]: less potent
- efficacy against sleep apnea (rate of apneas per hour of NREM and REM sleep) ([2]; rats): dose-dependent efficacy

Molecule: COc1cc(N)c(Cl)cc1C(=O)N[C@H]1CN2CCC1CC2 [R-zacopride]
- apnea frequency [4]: reduce apnea frequency

Molecule: CC(=O)Nc1nnc(S(N)(=O)=O)s1 [acetazolamide]
- effect in individuals with obstructive sleep apnea (OSAS) [1]: increase in obstructive apneas
- effect in individuals with central apnea [1]: variable improvement

Molecule: Nc1ncnc2c1ncn2[C@@H]1O[C@H](CO)[C@@H](O)[C@H]1O [adenosine]
- reduction of apnea in an animal model of sleep apnea [5]: somewhat effective in reducing apnea

Molecule: CN1C(=O)[C@@H](NC(=O)c2cc3ccccc3[nH]2)N=C(c2ccccc2)c2ccccc21 [devazepide]
- potency in blocking CCK-induced depolarization of nodose ganglion neurons [3]: highly potent
- efficacy against sleep apnea (rate of apneas per hour of NREM and REM sleep) ([2]; rats): dose-dependent efficacy

Molecule: CCN1CC(CCN2CCOCC2)C(c2ccccc2)(c2ccccc2)C1=O (centres unmarked) [doxapram]
- average arterial oxygen saturation [1, 6]: does not alter
- length of apneas [1, 6]: decreasing the length of apneas

Molecule: CCCCCN(CCCCC)C(=O)C(CCC(=O)O)NC(=O)c1ccc(Cl)c(Cl)c1 (centres unmarked) [lorglumide]
- efficacy against sleep apnea (rate of apneas per hour of NREM and REM sleep) ([2]; rats): dose-dependent efficacy

Molecule: CN1CCN2c3ncccc3Cc3ccccc3C2C1 (centres unmarked) [mirtazapine]
- reduction of apnea frequency ([1]; one study of OSAS patients): 50%
- apnea frequency [4]: reduce apnea frequency

Molecule: C=CCN1CC[C@]23c4c5ccc(O)c4O[C@H]2C(=O)CC[C@@]3(O)[C@H]1C5 [naloxone]
- effect in individuals with obstructive sleep apnea (OSAS) [1]: only slightly helpful

Molecule: Cc1nccn1CC1CCc2c(c3ccccc3n2C)C1=O (centres unmarked) [ondansetron]
- effect in individuals with obstructive sleep apnea (OSAS) [1]: failed to demonstrate any effect
- apnea frequency [4]: reduce apnea frequency

Molecule: CNCCCC1c2ccccc2C=Cc2ccccc21 [protriptyline]
- effect in individuals with obstructive sleep apnea (OSAS) [1]: variable results
- side effects ([1]; several small trials in individuals with OSAS): frequent and significant side effects

Molecule: Cn1c(=O)c2[nH]cnc2n(C)c1=O [theophylline]
- effect in individuals with obstructive sleep apnea (OSAS) [1]: of no use
- effect in individuals with central apnea [1]: may benefit

Molecule: CCCCCc1cc(O)c2c(c1)OC(C)(C)[C@@H]1CCC(C)=C[C@@H]21 [Δ9-tetrahydrocannibinol]
- reduction of apnea in an animal model of sleep apnea [5]: reduce sleep apneas

Molecule: medroxyprogesterone
- effect in individuals with obstructive sleep apnea (OSAS) [1]: no consistent benefit
